Like-named read-outs stand apart in the source and are kept apart here.

In test [1] the target is human platelet PDE3 (Homo sapiens (Human), UniProt Q14432). The experiment in a line: hPDE3 assay ([3H]cAMP scintillation proximity assay). Type of test: biochemical. From the text:
Here, compounds of formula I were screened for their ability to inhibit human PDE3 in the assay based on Amersham Pharmacia Biotech's Phosphodiesterase (PDE) [^3H]-adenosine 3′,5′ cyclic phosphate ([^3H]cAMP) Scintillation Proximity Assay (SPA). The assay is based on the hydrolysis of [^3H]cAMP, by human platelet PDE3, to [^3H]5′-adenoside monophosphate (5′-AMP). The [^3H]5′-AMP is specifically captured by yttrium silicate SPA beads in the presence of zinc sulphate.
• Optiplate and TopSeal-S (Can berra Packard) • Human platelet PDE3 (partially purified from human platelets)—a titration curve of human platelet PDE3 activity was performed to optimise the concentration of hPDE3 required in the assay. • Yttrium silicate SPA beads and [^3H]cAMP (Amersham) • Tris-Base, magnesium chloride, ethylenediaminetetraacetic acid (di-sodium salt), bovine serum albumin BSA and cAMP (Sigma) Solutions and Buffers: • Assay buffer: 7.56 g Tris-Base was dissolved in approximately 800 mL distilled water and the pH adjusted to 7.5 with 1 M hydrochloric acid. 10.3 mL 1 M magnesium chloride and 4.25 mL 0.5 M EDTA were added. The solution was made to 1 L with distilled water and stored at 4° C. On day of use 18 mL of the above solution was removed and 2 mL 5 mg/ml BSA were added thereto. • Enzyme buffer: 10 mM Tris-HCl at pH 7.5, 1 mM EDTA • Yttrium silicate SPA beads: 1 vial was reconstituted in 28 mL distilled water and stored at 4° C. Assay
The assay was performed in a final volume of 100 μL per well of an Optiplate (Canberra Packard). A 10 μL aliquot of the test compound dissolved in DMSO/distilled water was placed in a well of an Optiplate plate, followed by the addition of 80 μL ‘Assay mix’ (5.5 μL [^3H]cAMP and 88 μL “cold” cAMP were diluted to 8.8 mL using assay buffer). The reaction was started by adding 10 μL hPDE3 (50 μL stock hPDE3 solution was diluted 50 fold to 2.5 mL using enzyme buffer). The plate was incubated at room temperature for 30 min, the reaction was then terminated by the addition of 50 μL Yttrium silicate SPA beads (pre-warmed to room temperature) to all wells. […] The plate was sealed using TopSeal-S according to the manufacturer's instructions and counted using a Packard TopCount, each well being counted for 1 min. IC50 values were determined using non-linear regression.
On the technique in general: In a scintillation proximity assay essentially only radioactivity close to the scintillant gives light.

Test [2] has as its system GTL16 cells. The experiment in a line: GTL16 cell viability assay (CellTiter Glo). The following applies: read-out: GTL-16 Proliferation IC50; GTL16 cells, 24 hours. A general note: ATP-based viability assays read luminescence as a measure of living cells.

human platelet PDE3, sequence (Q14432 whole entry): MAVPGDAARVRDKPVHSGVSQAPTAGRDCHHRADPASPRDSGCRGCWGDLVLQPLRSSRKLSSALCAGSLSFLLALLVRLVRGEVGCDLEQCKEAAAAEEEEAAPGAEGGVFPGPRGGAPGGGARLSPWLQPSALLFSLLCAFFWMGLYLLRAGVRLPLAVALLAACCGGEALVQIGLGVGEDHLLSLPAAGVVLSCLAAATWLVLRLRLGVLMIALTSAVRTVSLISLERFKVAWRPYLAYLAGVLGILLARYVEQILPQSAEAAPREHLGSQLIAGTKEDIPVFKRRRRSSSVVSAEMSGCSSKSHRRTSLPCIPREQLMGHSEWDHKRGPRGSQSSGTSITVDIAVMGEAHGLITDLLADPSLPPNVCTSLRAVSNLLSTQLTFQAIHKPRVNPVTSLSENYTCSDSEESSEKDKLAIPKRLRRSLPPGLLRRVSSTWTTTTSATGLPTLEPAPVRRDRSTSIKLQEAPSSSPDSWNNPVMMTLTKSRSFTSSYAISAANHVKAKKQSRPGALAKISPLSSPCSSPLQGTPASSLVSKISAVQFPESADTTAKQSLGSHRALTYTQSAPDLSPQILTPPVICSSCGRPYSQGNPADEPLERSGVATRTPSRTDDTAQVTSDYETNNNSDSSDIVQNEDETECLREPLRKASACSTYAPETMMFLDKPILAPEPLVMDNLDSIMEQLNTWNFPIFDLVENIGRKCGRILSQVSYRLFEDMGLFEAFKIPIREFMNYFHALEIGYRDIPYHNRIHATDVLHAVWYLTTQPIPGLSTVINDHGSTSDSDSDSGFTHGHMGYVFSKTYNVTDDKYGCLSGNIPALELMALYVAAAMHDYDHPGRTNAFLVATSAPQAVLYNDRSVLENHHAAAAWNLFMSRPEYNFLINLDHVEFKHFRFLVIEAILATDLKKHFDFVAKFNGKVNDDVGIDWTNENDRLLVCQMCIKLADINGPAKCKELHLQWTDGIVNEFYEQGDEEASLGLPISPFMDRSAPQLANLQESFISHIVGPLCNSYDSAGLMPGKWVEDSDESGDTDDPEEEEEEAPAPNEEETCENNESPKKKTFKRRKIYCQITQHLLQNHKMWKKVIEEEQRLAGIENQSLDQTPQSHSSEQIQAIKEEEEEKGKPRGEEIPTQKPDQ

On to `CN1CCN(Cc2cnc3ccc(Sc4nnc5ccc(-c6cnn(C)c6)cn45)cc3c2)CC1` [Example 6, 6-(6-(1-Methyl-1H-pyrazol-4-yl)-[1,2,4]triazolo[4,3-a]pyridin-3-ylthio)-3-((4-methylpiperazin-1-yl)methyl)quinoline], for which the IC50 in test [1] (human platelet PDE3) came to 30 µM; in test [2], 0.027 µM. Take `CN1CCC(Nc2cnc3ccc(Sc4nnc5c(F)cc(-c6cnn(C)c6)cn45)cc3c2)CC1` [Example 8, {6-[8-Fluoro-6-(1-methyl-1H-pyrazol-4-yl)-[1,2,4]triazolo[4,3-a]pyridin-3-ylsulfanyl]-quinolin-3-yl}-(1-methyl-piperidin-4-yl)-amine]: the IC50 in test [1] (human platelet PDE3) was determined as 30 µM. As to `CN(C)[C@H]1CCN(c2cnc3ccc(Sc4nnc5c(F)cc(-c6cnn(C)c6)cn45)cc3c2)C1` [Example 13, (S)-1-(6-(8-Fluoro-6-(1-methyl-1H-pyrazol-4-yl)-[1,2,4]triazolo[4,3-a]pyridin-3-ylthio)quinolin-3-yl)-N,N-dimethylpyrrolidin-3-amine], the figures for the IC50 in test [1] (human platelet PDE3) and in test [2] were 24 µM and 0.0004 µM, respectively. On to `CN1CCC(Nc2cnc3ccc(Sc4nnc5ccc(-c6cnn(C)c6)cn45)cc3c2)CC1` [Example 15, (1-Methyl-piperidin-4-yl)-{6-[6-(1-methyl-1H-pyrazol-4-yl)-[1,2,4]triazolo[4,3-a]pyridin-3-ylsulfanyl]-quinolin-3-yl}-amine], for which the IC50 in test [1] (human platelet PDE3) was 30 µM; in test [2], 0.002 µM. The like results for `Cn1cc(-c2ccc3nnc(Sc4ccc5ncc(NC6CCNCC6)cc5c4)n3c2)cn1` [Example 23, 6-(6-(1-Methyl-1H-pyrazol-4-yl)-[1,2,4]triazolo[4,3-a]pyridin-3-ylthio)-N-(piperidin-4-yl)quinolin-3-amine] were, in that order, 30 µM and 0.289 µM. The like results for `Cn1cc(-c2ccc3nnc(Sc4ccc5ncc(N6CCNCC6)cc5c4)n3c2)cn1` [Example 27, 6-(6-(1-Methyl-1H-pyrazol-4-yl)-[1,2,4]triazolo[4,3-a]pyridin-3-ylthio)-3-(piperazin-1-yl)quinoline] were, in that order, 17 µM and 0.004 µM. The like results for `Cn1cc(-c2ccc3nnc(Sc4ccc5ncc(N6CCC7(CCOCC7)C6)cc5c4)n3c2)cn1` [Example 47, 2-(6-((6-(1-Methyl-1H-pyrazol-4-yl)-[1,2,4]triazolo[4,3-a]pyridin-3-yl)thio)quinolin-3-yl)-8-oxa-2-azaspiro[4.5]decane] were, in that order, 12 µM and 0.003 µM. For `Cn1cc(-c2cc(F)c3nnc(Sc4ccc5ncc(N6CCC(O)CC6)cc5c4)n3c2)cn1` [Example 50, 1-(6-((8-Fluoro-6-(1-methyl-1H-pyrazol-4-yl)-[1,2,4]triazolo[4,3-a]pyridin-3-yl)thio)quinolin-3-yl)piperidin-4-ol], the IC50 in test [1] (human platelet PDE3) is 30 µM; in test [2] it was 0.001 µM. For `Cn1cc(-c2ccc3nnc(Sc4ccc5ncc(NC6CCOC6)cc5c4)n3c2)cn1` (centres unmarked) [Example 51] the same measures were 7 µM and 0.009 µM.

With `C/C(=N\OCCO)c1ccc2nnc(Sc3ccc4ncc(N5CCOCC5)cc4c3)n2c1` [Example 78, (E)-1-(3-((3-Morpholin-4-yl-quinolin-6-yl)thio)-[1,2,4]triazolo[4,3-a]pyridin-6-yl)ethanone O-(2-hydroxyethyl)oxime], the IC50 in test [1] (human platelet PDE3) was 28 µM.

`C/C(=N\OCCO)c1ccc2nnc(Sc3ccc4ncc(CN5CCOCC5)cc4c3)n2c1` [Example 80, (E)-1-(3-((3-(Morpholin-4-yl-methyl)quinolin-6-yl)thio)-[1,2,4]triazolo[4,3-a]pyridin-6-yl)ethanone O-(2-hydroxyethyl)oxime] registered an IC50 in test [1] (human platelet PDE3) of 30 µM.

In the case of `C/C(=N\O)c1ccc2nnc(Sc3ccc4ncc(N5CC[C@H](N(C)C)C5)cc4c3)n2c1` [Example 82, (S,E)-1-(3-(3-(3-(Dimethylamino)pyrrolidin-1-yl)quinolin-6-ylthio)-[1,2,4]triazolo[4,3-a]pyridin-6-yl)ethanone oxime], the IC50 in test [1] turned out to be 11 µM.
